These results are taken from paper PMC4918903 (Journal of natural products, 2008).

The structures appear in SMILES notation. Values after ≈ are worked out from the molar mass of the structure shown. “Also recorded” adds a separate entry of the source.

The test system of one series is P. falciparum (D6 clone). As to the kind of experiment: In vitro antimalarial activity, chloroquine-sensitive D6 clone. It is filed as cell-based. To be noted: Plasmodium falciparum, D6, read-out: P. falciparum (D6 clone) IC50.
For series [1], the system named is Leishmania donovani promastigotes. As to the kind of experiment: Antileishmanial activity, Almar Blue assay. To be noted: for IC50: read-out: L. donovani IC50. Format: cell-based.
In a further series the test system is Candida albicans. As to the kind of experiment: In vitro antifungal activity. It is filed as cell-based.
For the next series, the system named is Cryptococcus neoformans. As to the kind of experiment: In vitro antifungal activity. To be noted: for IC50: Cryptococcus neoformans, read-out: C. neoformans IC50. Format: cell-based.
Series [2] has as its system Mycobacterium intracellulare. As to the kind of experiment: In vitro antibacterial activity. It is filed as cell-based.
Another series concerns P. bergei-infected mice. To be noted: single intraperitoneal and oral administration; cited from earlier work.
The test system of series [3] is P. berghei (sensitive strain). As to the kind of experiment: In vivo antimalarial activity in rodent malaria model. To be noted: oral; for cure: mice without parasitemia up to day 28 post-infection; for toxicity in vivo (in words): 30 mg/kg/day x 3 doses.
For another series, the system named is P. falciparum (W2 clone). As to the kind of experiment: In vitro antimalarial activity, chloroquine-resistant W2 clone. It is filed as cell-based. To be noted: Plasmodium falciparum, W2, read-out: P. falciparum (W2 clone) IC50.
Series [4] has as its system Vero cell line (monkey kidney fibroblast cells). As to the kind of experiment: Cytotoxicity to mammalian Vero cells. It is filed as cell-based. To be noted: highest tested concentration 4700 ng/mL.
The nature of another series: Stability in solvents. It is filed as physicochemical.
Series [5] relates to methicillin-resistant S. aureus (MRSA). As to the kind of experiment: In vitro antibacterial activity. Format: cell-based.
For another series, the system named is KB carcinoma cell line. To be noted: replacement of hydroxyl with methoxy at 8-position; cited from earlier work.
The test system of the next series is LoVo. To be noted: versus 8-hydroxy parent; cited from earlier work.
For a further series, the system named is HSV-II. To be noted: cited from earlier work.

In the case of `O[C@]12C=C(c3nccc4c3[nH]c3ccccc34)[C@@H]3CCN(CCCC/C=C\CC1)C[C@@]31C[C@@H]3/C=C\CCCCN3[C@H]12` [Compound 1, manzamine A], the IC50 was 0.0042 µg/mL (≈ 0.00765 µM) in the series with P. falciparum (D6 clone); 0.9 µg/mL (≈ 1.64 µM) in series [1]; 2 µg/mL (≈ 3.64 µM) with Candida albicans (Candida albicans, read-out: C. albicans IC50); 3 µg/mL (≈ 5.47 µM) with Cryptococcus neoformans; 0.35 µg/mL (≈ 0.638 µM) in [2] (Mycobacterium intracellulare, read-out: M. intracellulare IC50). In addition, the “prolonged survival of infected mice” value in the series with P. bergei-infected mice is reported as “more than 10 days”. In addition, the cure in series [3] (10 mg/kg x 3 days) is reported as 1/4. Moreover, in series [3], the “toxicity in vivo (in words)” value is recorded as “shows toxicity”.

For `CCN(CC)CCCC(C)Nc1ccnc2cc(Cl)ccc12` (stereo not drawn) [chloroquine, reference compound], the values for the concentration for half-maximal inhibition (IC50) with P. falciparum (D6 clone) and in the series on P. falciparum (W2 clone) were 0.014 µg/mL (≈ 0.0438 µM) and 0.155 µg/mL (≈ 0.485 µM), respectively. In addition, the “% suppression in parasitemia (% activity) day 7” value in series [3] (50 mg/kg x 3 days, vehicle 0.1 N HCl, day 7 post-infection) worked out at 100%. In addition, in series [3] (50 mg/kg x 3 days, vehicle 0.1 N HCl, day 10 post-infection), the “% suppression in parasitemia (% activity) day 10” value came out at 100%. Moreover, in [3] (50 mg/kg x 3 days, vehicle 0.1 N HCl, day 14 post-infection), the “% suppression in parasitemia (% activity) day 14” value is 100%. For the same compound, in series [3] (50 mg/kg x 3 days), the cure is 3/4.

For `CC(=O)Oc1cccc2c1[nH]c1c(C3=C[C@@]4(O)CC/C=C\CCCCN5CC[C@@H]3[C@]3(C[C@@H]6/C=C\CCCCN6[C@H]34)C5)nccc12` [Compound 3, 8-acetoxymanzamine A], the “toxicity to Vero cell line (in words)” value in [4] is reported as “exhibited toxicity”. Further, the “hydrolysis in DMSO and IPA (in words)” value in the series “Stability in solvents” (DMSO and IPA) is reported as “negligible”. The “formation of hydroxyl moiety 2 in MeCN and DMSO (in words)” value in “Stability in solvents” (MeCN and DMSO) is listed as “no detectable trace”. Further, the “hydrolysis to 2 in MeOH” value in “Stability in solvents” (MeOH, 15 h, LC-MS) is 98%. Besides, the figures for the cure in series [3] (10 mg/kg x 3 days) and in series [3] (30 mg/kg x 3 days) were 0/4 and 0/3, respectively. Besides, in [3], the “toxicity in vivo (in words)” value is given as “higher toxicity; also recorded: toxic”.

Take `Oc1cccc2c1[nH]c1c(C3=C[C@@]4(O)CC/C=C\CCCCN5CC[C@@H]3[C@]3(C[C@@H]6/C=C\CCCCN6[C@H]34)C5)nccc12` [Compound 2, 8-hydroxymanzamine A]: the half-inhibitory concentration (IC50) with P. falciparum (D6 clone) worked out at 0.006 µg/mL (≈ 0.0106 µM); in the series with P. falciparum (W2 clone) it was 0.008 µg/mL (≈ 0.0142 µM); in series [1], 6.2 µg/mL (≈ 11 µM); in the series on Cryptococcus neoformans it was 3 µg/mL (≈ 5.31 µM). In addition, in the series with Candida albicans (Candida albicans, read-out: C. albicans MIC), the minimum inhibitory concentration (MIC) was 20 µg/mL (≈ 35.4 µM). For the same compound, in the series on P. bergei-infected mice, the “prolonged survival of infected mice” value is “more than 10 days”. Further, the cure in [3] (10 mg/kg x 3 days) and in series [3] (30 mg/kg x 3 days) was 0/4 each time.

With `Oc1cccc2c1[nH]c1c(C3=C[C@@]4(O)CC/C=C\CCCCN5CC[C@@H]3[C@]3(CC6/C=C\CCCCN6[C@H]34)C5)nccc12` (stereo partly drawn) [Compound 2, 8-hydroxymanzamine A], the “toxicity in vivo (in words)” value in series [3] is recorded as “not toxic”.

As for `CC(=O)Oc1cccc2c1[nH]c1c(C3=C[C@@]4(OC(C)=O)CC/C=C\CCCCN5CC[C@@H]3[C@]3(C[C@@H]6/C=C\CCCCN6[C@H]34)C5)nccc12` [Compound 4, 8,12-diacetoxymanzamine A], the “toxicity to Vero cell line (in words)” value in [4] is recorded as “did not show cytotoxicity”. Also, the “activity against C. albicans (in words)” value in the series with Candida albicans is “inactive”. For the same compound, the “activity against C. neoformans (in words)” value in the series on Cryptococcus neoformans was “inactive”. The “activity against MRSA (in words)” value in series [5] is “moderate activity”. In addition, the “activity against M. intracellulare (in words)” value in series [2] is “moderate activity”. Also, the “stability in CDCl3 and CD2Cl2 (in words)” value in “Stability in solvents” (CDCl3 and CD2Cl2, 24 h, 1H NMR) is “decomposition”. Moreover, the “stability in benzene (in words)” value in “Stability in solvents” (benzene, a few days of 1H NMR acquisition) was “no changes were observed”. Also, the “stability in several tested solvents (in words)” value in “Stability in solvents” (several tested solvents with the exception of benzene) is “unstable and easily degraded”.

Turning to `N=C(N)c1ccc(OCCCCCOc2ccc(C(=N)N)cc2)cc1` [pentamidine, reference compound], the IC50 in series [1] worked out at 2.6 µg/mL (≈ 7.64 µM). Further, the IC90 in [1] (read-out: L. donovani IC90) came out at 6.9 µg/mL (≈ 20.3 µM).

`COc1cccc2c1[nH]c1c(C3=C[C@@]4(O)CC/C=C\CCCCN5CC[C@@H]3[C@]3(C[C@@H]6/C=C\CCCCN6[C@H]34)C5)nccc12` [Compound 5, 8-methoxymanzamine A]: the “toxicity to Vero cell line (in words)” value in series [4] is “exhibited toxicity”. Besides, in the series “Stability in solvents” (different solvents, two months, LC-MS), the “stability in different solvents (in words)” value is “no expected hydrolysis to compound 2 was observed”. For the same compound, in the series with KB carcinoma cell line, the “toxicity in KB carcinoma cell line versus 8-hydroxy parent (in words)” value is recorded as “reduced the toxicity”. Besides, the “cytotoxicity against LoVo (in words)” value in the series with LoVo was “cytotoxity increased”. Also, in the series on HSV-II, the “activity against HSV-II (in words)” value is given as “no activity”.
